Measured values taken from patent US6362197B1, “Compositions and method for treatment of cough” (Cardiome Pharma Corp., priority 1998, dated 2002).

How the values were obtained:
[1] = test system: citric acid-induced cough responses; assay: Citric acid-induced cough responses in ozone-exposed conscious rabbits; assay type: in vivo, rabbit; details: rabbits exposed to ozone 3 ppm 1 hour, aerosol 10 mg/ml, citric acid 1.6 M, 10 minute count; vehicle 22.0±5.1
Experimental: Investigation of Antitussive Activity of Aerosolized Compound 1 on Citric Acid-induced Cough Responses in Conscious Rabbits
Twenty-two male New Zealand white rabbits were randomly allocated to either of two groups of 11 rabbits.
Pairs of rabbits (control versus test) were placed in individual exposure chambers with an airflow of 5 liter/min through the chambers.
Each rabbit was exposed to ozone (3 ppm) for 1 hour.
The rabbits were then immediately exposed to aerosols of either vehicle (chamber 1) or Compound 1 (10 mg/ml, chamber 2) at a nebulization rate of 0.9 ml/min.
Cough responses were induced with citric acid aerosol (1.6 M).
Coughs were counted during the 10 minute exposure to citric acid.

[2] = test system: citric acid-induced cough responses; assay: Citric acid aerosol-induced cough in conscious guinea-pigs, 5 min aerosol pre-treatment; assay type: in vivo, guinea-pig; details: for Mean latency of cough: time to onset of first cough after initiation of citric acid aerosol: 5 min pre-treatment; for Mean latency of cough: time to onset of first cough after initiation of citric acid aerosol / Total coughs: number of coughs over 15 min following initiation of 1M citric acid aerosol: mean ± SEM; for Inhibition of cough responses compared with matched vehicle pre-treated guinea pigs: Example 2, aerosol pre-treatment immediately before citric acid exposure; for Anti-tussive activity (in words): Example 2, experiment similar to Example 1
Excerpt: Male albino Dunkin-Hartley strain guinea-pigs (weight 300-400 g) were supplied by Harlan UK Ltd., Bicester, Oxon, UK.
The method used was modified from that described by Adcock J. J., Schneider C. and Smith T. W., “Effects of Morphine and a Novel Opioid Pentapeptide BW443C, on Cough, Nociception and Ventilation in the Unanaesthetized Guinea-pig”, Br. J. Pharmacol., 93, 93-100 (1988). Individual conscious guinea-pigs were placed unrestrained into a sealed purpose built perspex exposure chamber (3,000 cm^3 volume) and allowed to acclimatize prior to aerosol administration.
Cylinder air was introduced into the exposure chamber at a flow rate of 1 liter/min, maintained by a needle valve and monitored by a rotameter. From the rotameter the air passed through the cup of an ultrasonic nebulizer (DeVilbis UltraNeb 2000) which was used to generate aerosols of drug or citric acid at 0.15 ml/min. A Fleisch pneumotachograph, connected to a differential pressure transducer (Grass model PT5) was attached to the outflow from the exposure chamber and provided a measurement of airflow from the chamber. The differential pressure transducer was connected to a Grass polygraph from which a hard copy record was produced. The output from the polygraph was directed to a computerized data acquisition system (Poh-Ne-Mah) for real time recording of data. A tie-clip microphone was placed in the exposure chamber and connected via a pre-amplifier to a loudspeaker output to provide the observer with an audio monitor of responses.
Cough responses were induced by exposure to an aerosol of citric acid (1M) for 10 minutes. Animals were continuously monitored by trained observer, and the number of coughs were counted during a 15 minute period from commencement of the citric acid aerosol administration.
The three types of response were differentiated primarily by sound and visual observation. […] Data recorded for individual guinea-pigs on the Poh-Ne-Mah system was stored on an optical disk. Each cough was marked on the Grass polygraph paper trace, and from these record numbers, frequency and time of onset of coughs were determined. The cough response was defined by a characteristic coughing sound and behavior, associated with a marked biphasic pressure change.
Quantities of drugs were weighed out and dissolved in a vehicle. Equal volumes were aliquotted into sample tubes before being passed, together with another sample tube containing the same volume of vehicle, to an independent observer for coding. Pre-treatments were matched by concentration together with a vehicle control group. Five guinea-pigs were randomly allocated to each treatment group. […] The sequence of pre-treatment administration was determined according to a 4×4 Latin Square design.
Data presented as the mean ±SEM number of coughs produced by individual guinea-pigs within each group during the 15 minute observation period or mean±SEM latency of cough were analyzed using one way analysis of variance to compare mean responses between matched groups of animals (doses) and between unmatched groups (treatments) followed by the Tukey-Kramer multiple comparison test where appropriate.

[3] = test system: citric acid-induced cough responses; assay: Therapeutic aerosol treatment after induction of cough by citric acid aerosol; assay type: in vivo, guinea pig; details: aerosol 10 mg/ml for 5 min, given 2 minutes after citric acid exposure began
Experimental: Vehicle or test agents were administered as aerosols (10 mg/ml; 5 minute duration) 2 minutes after exposure to citric acid aerosol began. Cough responses were recorded during a 15 minute observation period (t=0 to t=15 min.) from initiation of citric acid exposure.

[4] = test system: capsaicin aerosol-induced cough; assay: Capsaicin aerosol-induced cough in conscious guinea pigs, 5 min aerosol pre-treatment; assay type: in vivo, guinea pig; details: for Reduction of number of capsaicin-induced cough responses compared with matched vehicle: 5 minute pre-treatment; for Change of mean latency of cough onset: capsaicin-induced cough
[5] = test system: citric acid-induced cough responses; assay: Duration of anti-tussive effect against citric acid-induced cough, pre-treatment at various times; assay type: in vivo, guinea pig; details: 10 mg/ml aerosol
Experimental: Test agents or vehicle were administered as aerosol pre-treatments (10 mg/ml, 5 minute duration) at 5 minutes, 30 minutes, 1 hour, 2 hours and 4 hours prior to induction of cough responses by citric acid aerosol.

With C[N+](C)(CC(=O)Nc1ccccc1)CC(=O)Nc1ccccc1.[Cl-] [Compound 1, N,N-Bis-(phenylcarbamoylmethyl)dimethylammonium chloride] the melting point was 177 to 178 °C, the “Number of citric acid-induced cough responses, mean ± SEM” value [1] was 2.7±0.9 coughs and the “Percentage reduction of the cough response compared with matched vehicle control groups” value (from here on “Percentage reduction”) ([2]; aerosol conc. 0.1 mg/ml) was “(25.3%)”. The “Mean latency of cough: time to onset of first cough after initiation of citric acid aerosol” value (shortened to “Mean latency of cough: time”) ([2]; aerosol conc. 0.1 mg/ml) was 88 ± 6 s, the “Total coughs: number of coughs over 15 min following initiation of 1M citric acid aerosol” value ([2]; aerosol conc. 0.1 mg/ml) was 22.4 ± 6.0 and the “Cough frequency (in words)” value ([2]; aerosol conc. 1.0 mg/ml) was “frequency of coughs was reduced”. The “Percentage reduction” value ([2]; aerosol conc. 1.0 mg/ml) was “(40.4%)”, the “Mean latency of cough: time” value ([2]; aerosol conc. 1.0 mg/ml) was 103 ± 11 s and the “Total coughs: number of coughs over 15 min following initiation of 1M citric acid aerosol” value ([2]; aerosol conc. 1.0 mg/ml) was 16.8 ± 4.0. The “Guinea-pigs in the group with cough responses completely inhibited” value ([2]; aerosol conc. 10 mg/ml) was 4 of the 5, the “Latency of cough onset (in words)” value ([2]; aerosol conc. 10 mg/ml) was “prolonged the latency of cough onset” and the “Percentage reduction” value ([2]; aerosol conc. 10 mg/ml) was “(97.6%)”. For the same compound, the “Sneezing in animals that did not cough” value ([2]; aerosol conc. 10 mg/ml) was “marked absence of sneezing”, the “Mean latency of cough: time” value ([2]; aerosol conc. 10 mg/ml) was 778 ± 137^-- seconds and the “Total coughs: number of coughs over 15 min following initiation of 1M citric acid aerosol” value ([2]; aerosol conc. 10 mg/ml) was 0.6 ± 0.6^--. For the same compound, the “Inhibition of number of cough responses between t=2 and t=10 minutes” value [3] was 70.8%, the “Inhibition of total number of cough responses during the 15 minute observation period compared with matched vehicle” value ([3]; t=0 to t=15 min) was 63.8% and the “Reduction of number of capsaicin-induced cough responses compared with matched vehicle” value (“Reduction of number … with matched vehicle” for short) ([4]; aerosol 10 mg/ml) was 25%. The “Change of mean latency of cough onset” value ([4]; aerosol 10 mg/ml) was “no significant effect”, the “Reduction of number … with matched vehicle” value ([4]; aerosol 30 mg/ml) was 76.9% and the “Change of mean latency of cough onset” value ([4]; aerosol 30 mg/ml) was 2.1 fold. For the same compound, the “Inhibition of cough responses” value ([5]; pre-treatment 30 minutes before citric acid) was 63%, the “Inhibition of cough responses” value ([5]; pre-treatment 60 minutes before citric acid) was 60.7% and the “Inhibition of cough responses” value ([5]; pre-treatment 2 hours before citric acid) was 44.0%. For the same compound, the “Reduction in mean number of citric acid-induced cough responses” value ([5]; pre-treatment 4 hours before citric acid) was 15%, the “Inhibition of cough responses compared with matched vehicle pre-treated guinea pigs” value ([5]; pre-treatment immediately before citric acid exposure) was 84.9% and the “Increase of latency of cough onset” value ([5]; pre-treatment immediately prior to citric acid exposure) was 3.3 fold.
With CCN(CC)CC(=O)Nc1c(C)cccc1C [Lidocaine, lidocaine, reference compound] the “Reduction of number … with matched vehicle” value ([4]; aerosol 10 mg/ml) was 42.2%, the “Change of mean latency of cough onset” value ([4]; aerosol 10 mg/ml) was 1.2 fold and the “Reduction of number … with matched vehicle” value ([4]; aerosol 30 mg/ml) was 10.3%. For the same compound, the “Change of mean latency of cough onset” value ([4]; aerosol 30 mg/ml) was 0.8 fold.
With CC[N+](CC)(CC)CC(=O)Nc1c(C)cccc1C.[Cl-] [Compound 3, N-(2,6-dimethylphenylcarbamoylmethyl) triethylammonium chloride] the “Inhibition of cough responses compared with matched vehicle pre-treated guinea pigs” value [2] was “over 70%” and the “Anti-tussive activity (in words)” value [2] was “effective”.
For Cc1cccc(C)c1NC(=O)C[N+](C)(C)C.[Cl-] [Compound 2, N-(2,6-dimethylphenylcarbamoylmethyl) trimethylammonium chloride], the “Inhibition of cough responses compared with matched vehicle pre-treated guinea pigs” value [2] was “over 80%” and the “Anti-tussive activity (in words)” value [2] was “effective”.
